In patent publication US10308644B2, “Heterocyclic compounds as immunomodulators” (Incyte Corporation, priority 2016, dated 2019):

Molecular target: PD-1/PD-L1 (Homo sapiens (Human), UniProt Q9NZQ7)
Assay: PD-1/PD-L1 Homogeneous Time-Resolved Fluorescence (HTRF) Binding Assay
Conditions: recombinant human PD-1 (3 nM) and PD-L1 (10 nM), 25° C., PBS pH 7.4
Outline: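 Fc-tagged human PD-1 (25-167, 3 nM) and His-tagged PD-L1 (19-238, 10 nM) preincubated with inhibitor 40 min in PBS pH 7.4, 0.05% Tween-20, 0.1% BSA, 1% DMSO, 25 °C. Binding detected by HTRF (Eu anti-IgG/APC anti-His, 665/620 nm) after 60 min; IC50 from percent control activity.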

Chain of PD-1/PD-L1 (Q9NZQ7 19-238): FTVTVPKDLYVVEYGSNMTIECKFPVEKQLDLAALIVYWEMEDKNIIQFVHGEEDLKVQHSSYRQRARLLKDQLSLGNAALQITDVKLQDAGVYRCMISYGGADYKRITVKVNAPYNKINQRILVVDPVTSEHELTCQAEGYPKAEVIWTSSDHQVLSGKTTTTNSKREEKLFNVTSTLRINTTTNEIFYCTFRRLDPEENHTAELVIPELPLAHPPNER

SMILES | IC50
Cc1c(Nc2nccc3cc(CN4CC[C@@H](C(=O)O)C4)cnc23)cccc1-c1cccc(-c2nc3cc(CN[C@@H](C)CO)cc(C#N)c3o2)c1C [Example 211, (R)-1-((8-(3′-(7-cyano-5-(((S)-1-hydroxypropan-2-ylamino)methyl)benzo[d]oxazol-2-yl)-2,2′-dimethylbiphenyl-3-ylamino)-1,7-naphthyridin-3-yl)methyl)pyrrolidine-3-carboxylic acid] | ≤ 10 nM
Cc1c(Nc2nccc3cc(CN4CC[C@H](O)C4)cnc23)cccc1-c1cccc(-c2nc3cc(CN4CCC(C(=O)O)CC4)cc(Cl)c3o2)c1C [Example 22, (S)-1-((7-chloro-2-(3′-(3-((3-hydroxypyrrolidin-1-yl)methyl)-1,7-naphthyridin-8-ylamino)-2,2′-dimethylbiphenyl-3-yl)benzo[d]oxazol-5-yl)methyl)piperidine-4-carboxylic acid] | ≤ 10 nM
Cc1c(Nc2nccc(CN3CC[C@@H](O)C3)c2F)cccc1-c1cccc(-c2nc3cc(CN4CC[C@@H](C(=O)O)C4)cc(C#N)c3o2)c1C [Example 102, (R)-1-((7-cyano-2-(3′-(3-fluoro-4-(((R)-3-hydroxypyrrolidin-1-yl)methyl)pyridin-2-ylamino)-2,2′-dimethylbiphenyl-3-yl)benzo[d]oxazol-5-yl)methyl)pyrrolidine-3-carboxylic acid] | ≤ 10 nM
Cc1c(-c2nc3cc(CN4CCCC[C@H]4C(=O)O)c(OCC#N)cc3o2)cccc1-c1cccc(-c2nc3cc(CN4CCCC[C@H]4C(=O)O)c(OCC#N)cc3o2)c1C [Example 7, (2S,2′S)-1,1′-(((2,2′-dimethyl-[1,1′-biphenyl]-3,3′-diyl)bis(6-(cyanomethoxy)benzo[d]oxazole-2,5-diyl))bis(methylene))bis(piperidine-2-carboxylic acid)] | ≤ 10 nM
Cc1c(-c2nc3cc(CN4CC[C@H](O)C4)cc(Cl)c3o2)cccc1-c1cccc(-c2nc3cc(CN4CC[C@H](C(=O)O)C4)cc(Cl)c3o2)c1C [Example 10, (S)-1-((7-chloro-2-(3′-(7-chloro-5-(((S)-3-hydroxypyrrolidin-1-yl)methyl)benzo[d]oxazol-2-yl)-2,2′-dimethylbiphenyl-3-yl)benzo[d]oxazol-5-yl)methyl)pyrrolidine-3-carboxylic acid] | ≤ 10 nM
Cc1c(NC(=O)c2nc3c(n2C)CCN(C2CC2)C3)cccc1-c1cccc(-c2nc3cc(CN4CC[C@H](C(=O)O)C4)cc(C#N)c3o2)c1C [Example 39, (S)-1-((7-cyano-2-(3′-(5-cyclopropyl-1-methyl-4,5,6,7-tetrahydro-1H-imidazo[4,5-c]pyridine-2-carboxamido)-2,2′-dimethylbiphenyl-3-yl)benzo[d]oxazol-5-yl)methyl)pyrrolidine-3-carboxylic acid] | ≤ 10 nM
Cc1c(-c2nc3cc(CN4CC[C@@](C)(C(=O)O)C4)cc(C#N)c3o2)cccc1-c1cccc(-c2nc3c(s2)CN(C(=O)CN(C)C)C3)c1C [Example 109, (R)-1-((7-cyano-2-(3′-(5-(2-(dimethylamino)acetyl)-5,6-dihydro-4H-pyrrolo[3,4-d]thiazol-2-yl)-2,2′-dimethylbiphenyl-3-yl)benzo[d]oxazol-5-yl)methyl)-3-methylpyrrolidine-3-carboxylic acid] | ≤ 10 nM
Cc1c(-c2nc3c(o2)CN(C(=O)CN(C)C(C)C)C3)cccc1-c1cccc(-c2nc3cc(CN4CC[C@@](C)(C(=O)O)C4)cc(C#N)c3o2)c1C [Example 248, (R)-1-((7-cyano-2-(3′-(5-(N-isopropyl-N-methylglycyl)-5,6-dihydro-4H-pyrrolo[3,4-d]oxazol-2-yl)-2,2'-dimethyl-[1,1′-biphenyl]-3-yl)benzo[d]oxazol-5-yl)methyl)-3-methylpyrrolidine-3-carboxylic acid] | ≤ 10 nM
CCN1CCc2c(nc(C(=O)Nc3cccc(-c4cccc(-c5nc6cc(CN7CC[C@@](C)(C(=O)O)C7)cc(C#N)c6o5)c4C)c3Cl)n2C)C1 [Example 95, (R)-1-((2-(2′-chloro-3′-(5-ethyl-1-methyl-4,5,6,7-tetrahydro-1H-imidazo[4,5-c]pyridine-2-carboxamido)-2-methylbiphenyl-3-yl)-7-cyanobenzo[d]oxazol-5-yl)methyl)-3-methylpyrrolidine-3-carboxylic acid] | ≤ 10 nM
Cc1c(-c2nc3cc(CN4CC[C@@H](C(=O)O)C4)cc(Cl)c3o2)cccc1-c1cccc(-c2nc3c(s2)CN(CCO)CC3)c1C [Example 61, (R)-1-((7-chloro-2-(3′-(5-(2-hydroxyethyl)-4,5,6,7-tetrahydrothiazolo[5,4-c]pyridin-2-yl)-2,2′-dimethyl-[1,1′-biphenyl]-3-yl)benzo[d]oxazol-5-yl)methyl)pyrrolidine-3-carboxylic acid] | ≤ 10 nM
Cc1c(Nc2nccc3cc(CNC[C@@H](C)O)cnc23)cccc1-c1cccc(-c2nc3cc(CN4CC[C@@H](C(=O)O)C4)cc(C#N)c3o2)c1C [Example 147, (R)-1-((7-cyano-2-(3′-((3-((((R)-2-hydroxypropyl)amino)methyl)-1,7-naphthyridin-8-yl)amino)-2,2′-dimethyl-[1,1′-biphenyl]-3-yl)benzo[d]oxazol-5-yl)methyl)pyrrolidine-3-carboxylic acid] | ≤ 10 nM
Cc1c(-c2nc3cc(CN4CC[C@@H](C(=O)O)C4)cc(C#N)c3o2)cccc1-c1cccc(-c2nc3c(s2)CN(C(=O)CN2CC[C@@H](O)C2)C3)c1C [Example 111, (R)-1-((7-cyano-2-(3′-(5-(2-((R)-3-hydroxypyrrolidin-1-yl)acetyl)-5,6-dihydro-4H-pyrrolo[3,4-d]thiazol-2-yl)-2,2′-dimethylbiphenyl-3-yl)benzo[d]oxazol-5-yl)methyl)pyrrolidine-3-carboxylic acid] | ≤ 10 nM
Cc1c(-c2nc3cc(CN4CC5(CC(C(=O)O)C5)C4)cc(C#N)c3o2)cccc1-c1cccc(-c2nc3c(s2)CN(C(=O)CN(C)[C@@H](C)CO)C3)c1C [Example 232, 2-((7-cyano-2-(3′-(5-(2-(((S)-1-hydroxypropan-2-yl)(methyl)amino)acetyl)-5,6-dihydro-4H-pyrrolo[3,4-d]thiazol-2-yl)-2,2′-dimethylbiphenyl-3-yl)benzo[d]oxazol-5-yl)methyl)-2-azaspiro[3.3]heptane-6-carboxylic acid] | ≤ 10 nM
Cc1c(-c2nc3cc(CN4CC[C@@H](C(=O)O)C4)cc(C#N)c3o2)cccc1-c1cccc(-c2nc3c(s2)C(C)(C)N(C)CC3)c1C [Example 79, (R)-1-((7-cyano-2-(2,2′-dimethyl-3′-(4,4,5-trimethyl-4,5,6,7-tetrahydrothiazolo[5,4-c]pyridin-2-yl)-[1,1′-biphenyl]-3-yl)benzo[d]oxazol-5-yl)methyl)pyrrolidine-3-carboxylic acid] | ≤ 10 nM
Cc1c(-c2nc3cc(CN4CCCC[C@H]4C(=O)O)cc(Cl)c3o2)cccc1-c1cccc(NC(=O)c2ccc(CN3CC[C@H](O)C3)cn2)c1Cl [Example 2, (S)-1-((7-chloro-2-(2′-chloro-3′-(5-(((S)-3-hydroxypyrrolidin-1-yl)methyl)picolinamido)-2-methyl-[1,1′-biphenyl]-3-yl)benzo[d]oxazol-5-yl)methyl)piperidine-2-carboxylic acid] | ≤ 10 nM
Cc1c(-c2nc3cc(CN4CC[C@@](C)(C(=O)O)C4)cc(C#N)c3o2)cccc1-c1cccc(-c2nc3c(s2)CN(C(=O)CN2CC[C@H](O)C2)C3)c1C [Example 221, (R)-1-((7-cyano-2-(3′-(5-(2-((S)-3-hydroxypyrrolidin-1-yl)acetyl)-5,6-dihydro-4H-pyrrolo[3,4-d]thiazol-2-yl)-2,2′-dimethylbiphenyl-3-yl)benzo[d]oxazol-5-yl)methyl)-3-methylpyrrolidine-3-carboxylic acid] | ≤ 10 nM
Cc1c(Nc2nccc3cc(CNC[C@H](C)O)cnc23)cccc1-c1cccc(-c2nc3cc(CN4CCC(C(=O)O)CC4)cc(C#N)c3o2)c1C [Example 204, (S)-1-((7-cyano-2-(3′-(3-((2-hydroxypropylamino)methyl)-1,7-naphthyridin-8-ylamino)-2,2′-dimethylbiphenyl-3-yl)benzo[d]oxazol-5-yl)methyl)piperidine-4-carboxylic acid] | ≤ 10 nM
Cc1c(Nc2nccc3cc(CN4CC[C@@H](O)C4)cnc23)cccc1-c1cccc(-c2nc3cc(CNCC(C)(C)C(=O)O)cc(C#N)c3o2)c1C [Example 86, (R)-3-((7-cyano-2-(3′-(3-((3-hydroxypyrrolidin-1-yl)methyl)-1,7-naphthyridin-8-ylamino)-2,2′-dimethylbiphenyl-3-yl)benzo[d]oxazol-5-yl)methylamino)-2,2-dimethylpropanoic acid] | ≤ 10 nM
Cc1c(Nc2nccc3cc(CN4CC[C@](C)(O)C4)cnc23)cccc1-c1cccc(-c2nc3cc(CN4CC[C@@H](C(=O)O)C4)cc(C#N)c3o2)c1C [Example 138, (R)-1-((7-cyano-2-(3′-(3-(((S)-3-hydroxy-3-methylpyrrolidin-1-yl)methyl)-1,7-naphthyridin-8-ylamino)-2,2′-dimethylbiphenyl-3-yl)benzo[d]oxazol-5-yl)methyl)pyrrolidine-3-carboxylic acid] | ≤ 10 nM
Cc1c(-c2nc3cc(CN4CCCC4)cc(C#N)c3o2)cccc1-c1cccc(NC(=O)c2nc3c(n2C)CCN(C[C@H]2CC[C@H](C(=O)O)CC2)C3)c1Cl [Example 271, trans-4-((2-(2-chloro-3′-(7-cyano-5-(pyrrolidin-1-ylmethyl)benzo[d]oxazol-2-yl)-2′-methylbiphenyl-3-ylcarbamoyl)-1-methyl-6,7-dihydro-1H-imidazo[4,5-c]pyridin-5(4H)-yl)methyl)cyclohexanecarboxylic acid] | ≤ 10 nM
Cc1c(-c2nc3cc(CN4CC5CC4CC5C(=O)O)cc(C#N)c3o2)cccc1-c1cccc(-c2nc3c(s2)CN(C(=O)CN(C)C)C3)c1C (stereo not drawn) [Example 237, 2-((7-cyano-2-(3′-(5-(2-(dimethylamino)acetyl)-5,6-dihydro-4H-pyrrolo[3,4-d]thiazol-2-yl)-2,2′-dimethylbiphenyl-3-yl)benzo[d]oxazol-5-yl)methyl)-2-azabicyclo[2.2.1]heptane-5-carboxylic acid] | ≤ 10 nM
